This is an account of results in patent US20130211215A1, “HYPEROSMOTIC PREPARATIONS COMPRISING 5-AMINOLEVULINIC ACID OR DERIVATIVE AS PHOTOSENSITIZING AGENT” (Photocure ASA, priority 2010, published 2013).

Some results are limits rather than exact numbers.

Data set [1] is described as follows: Osmolarity of preparations. The data set is classed as physicochemical. The following applies: calculated from concentrations. An excerpt:
An osmometer may be used to determine the osmolarity of a solution. There are several different techniques employed in osmometry; vapour pressure depression osmometers determine the concentration of osmotically active particles that reduce the vapour pressure of a solution; membrane osmometers measure the osmotic pressure of a solution separated from pure solvent by a semi-permeable membrane; and freezing point depression osmometers are used to determine the osmotic strength of a solution (since osmotically active compounds depress the freezing point of a solution). Osmolarity may be measured using a vapour pressure osmometer such as that supplied by ELITech Group (Vapro 5600 vapour pressure osmometer). Where reference is made herein to specific values for osmolarity, these values may be determined using such apparatus operated under standard temperature and pressure conditions.
The osmolarity of small molecules can normally be calculated from their concentration in solution. For example, in the case of simple salts such as NaCl: 0.9% NaCl=150 mM. NaCl is fully dissociated in water and both Na^+ and Cl^− contribute to the osmolarity (i.e. each mole of NaCl becomes two osmoles in solution, one mole of Na^+ and one mole of Cl^−). The osmolarity is therefore 150 mM×2=300 mOsmol/l. […]

A short description of data set [2]: Absorption from the colon after enema (pharmacokinetic studies with 14C-labelled agents, HAL enema studies). The data set is classed as in vivo. The following applies: enema preparations. From the text: Such high systemic uptake of photosensitizer may constitute a safety issue for the patient due to the high dosage of agent circulating within the bloodstream.

Data set [3] deals with pre-malignant conditions in the colon. The following applies: enema, 200 mg in 500 ml or 1000 ml phosphate buffered saline; Mayinger et al. 2008; cited from earlier work.
Data set [4] in a line: Systemic uptake from the colon assessed as PpIX skin fluorescence after colonic instillation. The data set is classed as in vivo, hairless mice (C3.Cg/TifBomTac-hr). The procedure:
Experiments were performed in hairless mice weighing 20 g (C3.Cg/TifBomTac-hr). […] The animals were fasted for 24 hours but with free access to water before the experiment. Prior to administration of the test preparation, the mice were anaesthetised with Hypnorm/Dormicum. This was also repeated every second hour.
When ALA hexylester is administered sytemically, it induces PpIX formation in the entire body. The systemic uptake of ALA hexylester after colonic administration was therefore assessed as skin fluorescence. To assess the PpIX skin fluorescence, the mice were photographed using a fluorescence camera (Medeikonos PDD/PDT, Medeikonos AB, Gothenburg, Sweden) at excitation wavelengths of 365 and 405 nm and 2 sec illumination time. Each photo was calibrated to a fluorescence standard (Uranyl Standard, J&M, Analytische Mess and Regeltecknik, GmbH, Hamburg, Germany) and adjusted for background fluorescence. The mean amount of PpIX fluorescence in each image was calculated by means of image analyzer-software (MatLab 7.2.0.232, Math-Works, Natick, Mass., USA).
All dilutions were performed in 0.9% NaCl (150 mM=300 mOsmol/l). For the colon instillation, a 1000 μl micropipette with a plastic tip was used. […] In all experiments, instillation lasted until the experiment was finished (approx. 5 hours).
Increasing doses (8 to 40 mM ALA hexylester) were given by anal administration to mice and the resulting skin fluorescence measured as described. […] The resulting systemic fraction was proportional to the concentration of ALA hexylester in the enema.
The ALA hexylester was dissolved as the corresponding hydrochloride salt. 20 mM ALA hexylester constitutes an osmolarity of approx. 40 mOsmol/l.
(§1) The purpose of this study was to investigate the effect of adding sorbitol to an enema formulation containing 20 mM ALA hexylester in an attempt to reduce the systemic uptake of the photosensitizer. It was discovered in pilot experiments that sorbitol at concentrations above 300 mM gave diarrhea. Therefore, the effect of 300 mM sorbitol in 0.9% NaCl (600 mOsmol/l) was investigated by comparing the skin fluorescence in two mice that were given 20 mM ALA hexylester (in 0.9% NaCl) with the skin fluorescence in two mice that had received 20 mM ALA hexylester and 300 mM sorbitol. The osmolarities of these solutions are outlined below. • 1. 20 mM ALA hexylester in 0.9% NaCl: (40+300) mOsmol/l=340 mOsmol/l • 2. 20 mM ALA hexylester and 300 mM sorbitol in 0.9% NaCl: (40+300+300) mOsmol/l=640 mOsmol/l (hypertonic preparation)

Details of data set [5]: species or system mice. The following applies: C3.Cg/TifBomTac-hr (hairless), mouse, in vivo. The procedure:
as §1

Take `CCCCCCOC(=O)CCC(=O)CN` [ALA hexylester, 5-aminolevulinic acid hexyl ester]: in data set [1], the osmolarity entry is “approx. 40 mOsmol/l”. In addition, in data set [2], the “absorption of the active photosensitizing agent in the colon” value is “absorption of a significant amount”. For the same compound, the “more polyps detected by PDD than with white light endoscopic imaging” value in data set [3] is reported as 28%. In addition, the skin fluorescence result in data set [4] (8 mM ALA hexylester (concentration used clinically), colonic instillation 0.6 ml in 0.9% NaCl, FIG. 1) was “no skin fluorescence”; in data set [4] (20 mM ALA hexyl ester, colonic administration) it was “reasonable levels of skin sensitivity”. Also, the “relationship between concentration in the enema and resulting skin fluorescence” value in data set [4] (8 to 40 mM, anal administration, FIG. 1) is “clear dose-response relationship”. Moreover, the “concentration of ALA hexylester appearing saturating for skin fluorescence” value in data set [4] (colonic instillation 0.6 ml in 0.9% NaCl, FIG. 1) was no less than 30000 µM.

`OC[C@@H](O)[C@@H](O)[C@H](O)[C@@H](O)CO` [sorbitol]: the “sorbitol concentration that gave diarrhea” value in data set [5] is “above 300 mM”.
